The record followed here is patent US10034886B2, “GLP-1 receptor modulators” (Celgene International II SÀRL, priority 2014, dated 2018).

Structures are written as SMILES.

The target of this assay is T1, GLP-1R (Homo sapiens, UniProt P43220).
T1 construct: host or cells: GLP-1R CRE-bla CHO-K1 cells
T1 sequence (P43220 24-463): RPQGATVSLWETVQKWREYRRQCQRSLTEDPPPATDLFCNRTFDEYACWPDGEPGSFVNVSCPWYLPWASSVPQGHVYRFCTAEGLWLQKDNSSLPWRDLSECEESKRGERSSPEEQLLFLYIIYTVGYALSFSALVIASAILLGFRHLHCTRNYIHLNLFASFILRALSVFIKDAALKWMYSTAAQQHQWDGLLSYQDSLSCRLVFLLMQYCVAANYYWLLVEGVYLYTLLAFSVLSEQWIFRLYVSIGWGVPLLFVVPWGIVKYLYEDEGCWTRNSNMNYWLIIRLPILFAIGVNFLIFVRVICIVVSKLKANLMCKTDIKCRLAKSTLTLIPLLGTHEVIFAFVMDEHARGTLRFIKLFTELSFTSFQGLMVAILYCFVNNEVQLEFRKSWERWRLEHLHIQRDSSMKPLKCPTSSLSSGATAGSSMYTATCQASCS
T1 sequence (P01275 100-127 partner limits assumed): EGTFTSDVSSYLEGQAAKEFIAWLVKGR
Put plainly: EC20 GLP-1(9-36) PAM cAMP assay: dose response of compound in the presence of fixed concentration of GLP-1(9-36). The assay is classed as cell-based. As to conditions: dose response of compound in presence of fixed concentration of GLP-1(9-36), GLP-1R CRE-bla CHO-K1 cells, read-out: EC20 GLP-1(9-36) PAM EC50. The essentials: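 GLP-1R CRE-bla CHO-K1 cells treated 30 min at 37 °C with 12-point compound dose response plus fixed EC20 GLP-1(9-36), with IBMX, in HBSS/HEPES/0.1% BSA pH 7.4. Total cAMP measured by luminescent detection against standard curve; EC50 and Emax from non-linear regression.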
As for `CCCCCCCOc1ccc(-c2cnc(-c3ccc(C[C@H](NC(=O)c4ccc(C(C)(C)C)s4)C(=O)N4CC(C(=O)O)CC4C)cc3)nc2)cc1` (some centres unmarked) [Compound 892], the concentration giving a half-maximal response (EC50) was less than 800 nM.
Consider `CCCCCCCOc1ccc(-c2cnc(-c3ccc(C[C@H](NC(=O)c4ccc(C(C)(C)C)cc4)C(=O)N4CC(C(=O)O)CC4C)cc3)nc2)cc1` (some centres unmarked) [Compound 893], for which the EC50 is 2500 to 5000 nM.
In the case of `CCCCCCCOc1ccc(-c2cnc(-c3ccc(C[C@H](NC(=O)c4ccc(C(C)(C)C)s4)C(=O)NCC4(O)CCN(C)C4)cc3)nc2)cc1` (some centres unmarked) [Compound 894], the EC50 was 5000 to 10000 nM.
As for `CCCCCCCOc1ccc(-c2cnc(-c3ccc(C[C@H](NC(=O)c4ccc(C(C)(C)C)s4)C(=O)N[C@@H](c4n[nH]c(=S)o4)[C@@H](C)O)cc3)nc2)cc1` [Compound 895], the figure is less than 800 nM.
As for `CCCCCCCOc1ccc(-c2cnc(-c3ccc(C[C@H](NC(=O)c4ccc(C(C)(C)C)s4)C(=O)NC(C(=O)O)[C@H](C)c4ccccc4)cc3)nc2)cc1` (some centres unmarked) [Compound 896], the figure is 5000 to 10000 nM; as for `CCCCCCCOc1ccc(-c2cnc(-c3ccc(C[C@H](NC(=O)c4ccc(C(C)(C)C)s4)C(=O)NC(C(=O)O)[C@@H](C)c4ccccc4)cc3)nc2)cc1` (some centres unmarked) [Compound 897], 5000 to 10000 nM; as for `CCCCCCCOc1ccc(-c2cnc(-c3ccc(C[C@H](NC(=O)c4ccc(C(C)(C)C)s4)C(=O)N[C@@H](C(=O)O)C(C)c4ccccc4)cc3)nc2)cc1` (some centres unmarked) [Compound 898], 2500 to 5000 nM.
As for `CCCCCCCOc1ccc(-c2cnc(-c3ccc(C[C@H](NC(=O)c4ccc(C(C)(C)C)s4)C(=O)N[C@H](C(=O)O)C(C)c4ccccc4)cc3)nc2)cc1` (some centres unmarked) [Compound 899], the figure is 2500 to 5000 nM; as for `CCCCCCCOc1ccc(-c2cnc(-c3ccc(C[C@H](NC(=O)c4ccc(C(C)(C)C)s4)C(=O)NC(C(=O)O)C(O)c4ccc(C)cc4)cc3)nc2)cc1` (some centres unmarked) [Compound 900], 800 to 2500 nM.
Turning to `CCCCCCCOc1ccc(-c2cnc(-c3ccc(C[C@H](NC(=O)c4ccc(C(C)(C)C)s4)C(=O)NC(C(=O)O)C(O)c4ccc(Cl)cc4)cc3)nc2)cc1` (some centres unmarked) [Compound 901], the concentration giving a half-maximal response (EC50) lay in the range of 800 to 2500 nM.
Then `CCCCCCCOc1ccc(-c2cnc(-c3ccc(C[C@H](NC(=O)c4ccc(C(C)(C)C)s4)C(=O)NC(C(=O)O)C(O)c4cccc(Cl)c4)cc3)nc2)cc1` (some centres unmarked) [Compound 902], with 2500 to 5000 nM; and `CCCCCCCOc1ccc(-c2cnc(-c3ccc(C[C@H](NC(=O)c4ccc(C(C)(C)C)s4)C(=O)NC(C(=O)O)C(O)c4cscn4)cc3)nc2)cc1` (some centres unmarked) [Compound 903], with 5000 to 10000 nM.
Then `CCCCCCCOc1ccc(-c2cnc(-c3ccc(C[C@H](NC(=O)c4ccc(C(C)(C)C)s4)C(=O)NC(C(=O)O)C(O)c4cncnc4)cc3)nc2)cc1` (some centres unmarked) [Compound 904], with 2500 to 5000 nM; and `CCCCCCCOc1ccc(-c2cnc(-c3ccc(C[C@H](NC(=O)c4ccc(C(C)(C)C)s4)C(=O)NC(C(=O)O)C(O)c4ccc(Cl)c(Cl)c4)cc3)nc2)cc1` (some centres unmarked) [Compound 905], with 5000 to 10000 nM.
As for `CCCCCCCOc1ccc(-c2cnc(-c3ccc(C[C@H](NC(=O)c4ccc(C(C)(C)C)s4)C(=O)NC(C(=O)O)C(O)c4cn(C)cn4)cc3)nc2)cc1` (some centres unmarked) [Compound 906], the figure is 2500 to 5000 nM.
With `CCCCCCCOc1ccc(-c2cnc(-c3ccc(C[C@H](NC(=O)c4ccc(C(C)(C)C)s4)C(=O)NC(C(=O)O)C(O)c4cccnc4)cc3)nc2)cc1` (some centres unmarked) [Compound 907], the EC50 was 800 to 2500 nM.
As to `CCCCCCCOc1ccc(-c2cnc(-c3ccc(C[C@H](NC(=O)c4ccc(C(C)(C)C)s4)C(=O)NC(C(=O)O)C(O)C4CC4)cc3)nc2)cc1` (some centres unmarked) [Compound 908], the EC50 was in the range of 800 to 2500 nM.
For `CCCCCCCOc1ccc(-c2cnc(-c3ccc(C[C@H](NC(=O)c4ccc(C(C)(C)C)s4)C(=O)N[C@H](C(=O)O)[C@@H](C)c4ccccc4)cc3)nc2)cc1` [Compound 909], the EC50 fell in the range of 2500 to 5000 nM.
Then `CCCCCCCOc1ccc(-c2cnc(-c3ccc(C[C@H](NC(=O)c4ccc(C(C)(C)C)s4)C(=O)N[C@@H](C(=O)O)[C@H](C)c4ccccc4)cc3)nc2)cc1` [Compound 910], with 800 to 2500 nM; and `CCCCCCCOc1ccc(-c2cnc(-c3ccc(C[C@H](NC(=O)c4ccc(C(C)(C)C)s4)C(=O)NC(C(=O)O)C(O)c4ccc(C#N)cc4)cc3)nc2)cc1` (some centres unmarked) [Compound 911], with 800 to 2500 nM; and `CCCCCCCOc1ccc(-c2cnc(-c3ccc(C[C@H](NC(=O)c4ccc(C(C)(C)C)s4)C(=O)NC(C(=O)O)C(O)c4cc(C)no4)cc3)nc2)cc1` (some centres unmarked) [Compound 912], with less than 800 nM.
As for `CCCCCCCOc1ccc(-c2cnc(-c3ccc(C[C@H](NC(=O)c4ccc(C(C)(C)C)s4)C(=O)NC(C(=O)O)C(O)c4ncccn4)cc3)nc2)cc1` (some centres unmarked) [Compound 913], the figure is less than 800 nM; as for `CCCCCCCOc1ccc(-c2cnc(-c3ccc(C[C@H](NC(=O)c4ccc(C(C)(C)C)s4)C(=O)NC(C(=O)O)C(O)C4CCCCC4)cc3)nc2)cc1` (some centres unmarked) [Compound 914], 2500 to 5000 nM.
For the molecule `CCCCCCCOc1ccc(-c2cnc(-c3ccc(C[C@H](NC(=O)c4ccc(C(C)(C)C)s4)C(=O)NC(C(=O)O)C(O)c4cccnn4)cc3)nc2)cc1` (some centres unmarked) [Compound 915], the EC50 fell in the range of 800 to 2500 nM.
With `CCCCCCCOc1ccc(-c2cnc(-c3ccc(C[C@H](NC(=O)c4ccc(C(C)(C)C)s4)C(=O)NC(C(=O)O)C(O)C4CCCO4)cc3)nc2)cc1` (some centres unmarked) [Compound 916], the EC50 is 800 to 2500 nM.
Then `CCCCCCCOc1ccc(-c2cnc(-c3ccc(C[C@H](NC(=O)c4ccc(C(C)(C)C)s4)C(=O)NC(C(=O)O)C(O)c4cnccn4)cc3)nc2)cc1` (some centres unmarked) [Compound 917], with 800 to 2500 nM.
Turning to `CCCCCCCOc1ccc(-c2cnc(-c3ccc(C[C@H](NC(=O)c4ccc(C(C)(C)C)s4)C(=O)NC(C(=O)O)C(O)C(C)(C)C)cc3)nc2)cc1` (some centres unmarked) [Compound 918], the EC50 was in the range of 5000 to 10000 nM.
Then `CCC(CC)Oc1ccc(-c2cnc(-c3ccc(C[C@H](NC(=O)c4ccc(C(C)(C)C)s4)C(=O)N4CC(C(=O)O)C4)cc3)nc2)cc1` [Compound 919], with 5000 to 10000 nM; and `CC(C)(C)c1ccc(C(=O)N[C@@H](Cc2ccc(-c3ncc(-c4ccc(OCCC5CCCC5)cc4)cn3)cc2)C(=O)N2CC(C(=O)O)C2)s1` [Compound 920], with 800 to 2500 nM.
Then `CC(C)(C)c1ccc(C(=O)N[C@@H](Cc2ccc(-c3ncc(-c4ccc(OC5CCCCC5)cc4)cn3)cc2)C(=O)N2CC(C(=O)O)C2)s1` [Compound 921], with 5000 to 10000 nM; and `CC(C)(C)c1ccc(C(=O)N[C@@H](Cc2ccc(-c3ncc(-c4ccc(OCC5CCCC5)cc4)cn3)cc2)C(=O)N2CC(C(=O)O)C2)s1` [Compound 922], with 5000 to 10000 nM; and `CC(C)CCCCOc1ccc(-c2cnc(-c3ccc(C[C@H](NC(=O)c4ccc(C(C)(C)C)s4)C(=O)NC(C(=O)O)C(O)c4ccccc4)cc3)nc2)cc1` (some centres unmarked) [Compound 923], with 800 to 2500 nM.
Then `CC(C)CCCOc1ccc(-c2cnc(-c3ccc(C[C@H](NC(=O)c4ccc(C(C)(C)C)s4)C(=O)NC(C(=O)O)C(O)c4ccccc4)cc3)nc2)cc1` (some centres unmarked) [Compound 924], with 2500 to 5000 nM; and `CCCCCOc1ccc(-c2cnc(-c3ccc(C[C@H](NC(=O)c4ccc(C(C)(C)C)s4)C(=O)NC(C(=O)O)C(O)c4ccccc4)cc3)nc2)cc1` (some centres unmarked) [Compound 925], with 2500 to 5000 nM; and `CCCCCCCCOc1ccc(-c2cnc(-c3ccc(C[C@H](NC(=O)c4ccc(C(C)(C)C)s4)C(=O)NC(C(=O)O)C(O)c4ccccc4)cc3)nc2)cc1` (some centres unmarked) [Compound 926], with 800 to 2500 nM.
In the case of `CC(C)(C)c1ccc(C(=O)N[C@@H](Cc2ccc(-c3ncc(-c4ccc(OC(F)(F)F)cc4)cn3)cc2)C(=O)NC(C(=O)O)C(O)c2ccccc2)s1` (some centres unmarked) [Compound 927], the EC50 fell in the range of 2500 to 5000 nM.
`CC(C)(C)c1ccc(C(=O)N[C@@H](Cc2ccc(-c3ncc(-c4ccc(OCC(F)(F)F)cc4)cn3)cc2)C(=O)NC(C(=O)O)C(O)c2ccccc2)s1` (some centres unmarked) [Compound 928]: the concentration for a half-maximal effect (EC50) was in the range of 2500 to 5000 nM.
For the molecule `CC(C)(C)c1ccc(C(=O)N[C@@H](Cc2ccc(-c3ncc(-c4ccc(OC5CCCC5)cc4)cn3)cc2)C(=O)NC(C(=O)O)C(O)c2ccccc2)s1` (some centres unmarked) [Compound 929], the EC50 is 5000 to 10000 nM.
As to `CC(C)(C)c1ccc(C(=O)N[C@@H](Cc2ccc(-c3ncc(-c4ccc(OC5CC5)cc4)cn3)cc2)C(=O)NC(C(=O)O)C(O)c2ccccc2)s1` (some centres unmarked) [Compound 930], the EC50 was in the range of 5000 to 10000 nM.
Then `CC(C)Oc1ccc(-c2cnc(-c3ccc(C[C@H](NC(=O)c4ccc(C(C)(C)C)s4)C(=O)NC(C(=O)O)C(O)c4ccccc4)cc3)nc2)cc1` (some centres unmarked) [Compound 931], with 2500 to 5000 nM.
As for `CC(C)(C)c1ccc(-c2cnc(-c3ccc(C[C@H](NC(=O)c4ccc(C(C)(C)C)s4)C(=O)NC(C(=O)O)C(O)c4ccccc4)cc3)nc2)cc1` (some centres unmarked) [Compound 932], the figure is 2500 to 5000 nM.
As for `CCCOc1ccc(-c2cnc(-c3ccc(C[C@H](NC(=O)c4ccc(C(C)(C)C)s4)C(=O)NC(C(=O)O)C(O)c4ccccc4)cc3)nc2)cc1` (some centres unmarked) [Compound 933], the figure is 5000 to 10000 nM.
For `CC(C)COc1ccc(-c2cnc(-c3ccc(C[C@H](NC(=O)c4ccc(C(C)(C)C)s4)C(=O)NC(C(=O)O)C(O)c4ccccc4)cc3)nc2)cc1` (some centres unmarked) [Compound 934], the EC50 was 5000 to 10000 nM.
Turning to `CCC(CC)Oc1ccc(-c2cnc(-c3ccc(C[C@H](NC(=O)c4ccc(C(C)(C)C)s4)C(=O)NC(C(=O)O)C(O)c4ccccc4)cc3)nc2)cc1` (some centres unmarked) [Compound 935], the EC50 is 2500 to 5000 nM.
Then `CC(C)(C)c1ccc(C(=O)N[C@@H](Cc2ccc(-c3ncc(-c4ccc(OCC5CCCCC5)cc4)cn3)cc2)C(=O)NC(C(=O)O)C(O)c2ccccc2)s1` (some centres unmarked) [Compound 936], with 800 to 2500 nM.
Regarding `CC(C)(C)CCCOc1ccc(-c2cnc(-c3ccc(C[C@H](NC(=O)c4ccc(C(C)(C)C)s4)C(=O)NC(C(=O)O)C(O)c4ccccc4)cc3)nc2)cc1` (some centres unmarked) [Compound 937], the half-maximal effective concentration (EC50) was 800 to 2500 nM.
As for `CC(C)(C)c1ccc(C(=O)N[C@@H](Cc2ccc(-c3ncc(-c4ccc(OC5CCCCC5)cc4)cn3)cc2)C(=O)NC(C(=O)O)C(O)c2ccccc2)s1` (some centres unmarked) [Compound 938], the figure is 5000 to 10000 nM.
